# Assay results published in patent publication US11266662B2, “Ganaxolone for use in prophylaxis and treatment of postpartum depression” (Marinus Pharmaceuticals, Inc., priority 2018, dated 2022).
# “And” between values parts separate entries of the source, which are not always exact repeats. Equal entries are not always repeated. “Also recorded” adds a separate entry of the source.
# Key:
# [1] = Mutagenicity
# [2] = IV bolus plus continuous IV infusion toxicity in dog, 28 days; conditions: in vivo
# [3] = system: women with postpartum depression; assay: Phase 2A study: safety and tolerability (adverse events); type: in vivo, human
# [4] = system: synaptic and extrasynaptic GABAA receptors; assay: Activation of synaptic and extrasynaptic GABAA receptors; conditions: site distinct from the benzodiazepine site
# [5] = system: mouse model of posttraumatic stress disorder (PTSD); conditions: Pinna and Rasmussen, 2014; cited from earlier work
# [6] = Phase 1 study of IV ganaxolone in healthy volunteers (safety, pharmacokinetics, sedation); type: in vivo, human
# Experimental: The safety, pharmacokinetics and pharmacodynamics of IV ganaxolone were investigated in healthy 36 volunteers, in which ganaxolone was administered as a bolus dosing (Stage 1) or as a bolus dose followed by a continuous infusion (Stage 2). Ten of the 36 subjects enrolled were women. Stage 1 enrolled and dosed subjects in 4 cohorts (A-D): 6 subjects in Cohort A (10 mg ganaxolone IV bolus in 3 subjects and 30 mg ganaxolone bolus in 3 subjects over 5-minutes), 8 subjects in Cohort B (20 mg ganaxolone bolus over 2-minutes), 8 subjects in Cohort C (30 mg ganaxolone bolus over 1-hour) and 8 subjects in Cohort D (10 mg ganaxolone bolus over 1-hour). Cohorts B, C and D included 2 placebo subjects in each cohort. Stage 2 of the study dosed a total of 6 subjects with a 6 mg bolus followed by a 4-hour infusion at 20 mg/h. Ten of the 36 subjects enrolled in the study were women.
# A Phase 1 study in healthy volunteers investigating the safety of IV ganaxolone, infusion of 30 mg/hr for 1 hour, 20 mg over 2 minutes and 20 mg/hr for 4 hours led to peak concentrations of 258, 441 and 215 ng/mL, respectively, without any safety concerns. Sedation was assessed using the Modified Observers Assessment of Alertness/Sedation (MOAAS) scale. On this scale, score 5 indicates no sedation (responds readily to name spoken in normal tone) while score 1 indicates deep sedation (responds only after painful trapezius squeeze). […] The sedation scores reversed quickly after the infusion was stopped. The highest bolus dose tested was 30 mg, which was infused over 5-minutes. This dose led to peak concentration levels (Cmax) of >1,000 ng/mL with no safety concerns (except sedation).
# [7] = In vitro haemolysis / human plasma compatibility
# [8] = Tissue distribution of [14C]-ganaxolone; conditions: mouse, rat, brain
# [9] = Excretion of radioactivity; conditions: all species
# [10] = system: women with postpartum depression; assay: Phase 2A study Cohort 6: efficacy (HAM-D17, CGI-I, EPDS, STAI6) versus placebo; type: in vivo, human; conditions: for Placebo-adjusted difference, HAM-D17 (LS Mean), early efficacy / Placebo-adjusted difference, HAM-D17 (LS Mean), late efficacy: Cohort 6: IV 20 mg/hr for 6 h then 900 mg orally for 28 days; for Placebo-adjusted difference, HAM-D17 (LS Mean), late efficacy: Day 29
# Experimental: Approximately 10-30 subjects are randomized into each cohort.
# The primary efficacy endpoint is HAM-D17 total score change from baseline to 60 hours post-infusion (on Day 3) for Cohorts 1-3 and to Day 29 for Cohort 6. The primary analysis in each cohort is done using the mITT set. Although the trial is not powered for inferential analysis and there is no consideration for control of type 1 error across multiple cohorts, a clinically meaningful numeric difference in means of 3-4 points, based on mITT analysis, between ganaxalone and placebo treatment groups is considered an indication of acceptable efficacy and is be the most influential outcome in the overall assessment of the efficacy of ganaxolone in treating PPD.
# The trial also evaluates the following secondary endpoints at each post-baseline data collection time point to provide additional evidence of the efficacy of ganaxolone in treating PPD: • Change from baseline in HAM-D17 total score other than at 60 hours post-infusion (on Day 3) for Cohorts 1-3 and to Day 29 for Cohort 6 • Change from baseline in EPDS total score • Change from baseline in STAI6 • CGI-I. Exploratory Endpoints
# [11] = system: subjects; assay: All completed placebo-controlled clinical studies of ganaxolone: adverse events; type: in vivo, human
# Experimental: As of Oct. 10, 2017, 1557 unique subjects have received ganaxolone ranging in duration from 1 day to more than 2 years using doses from 50 to 2000 mg/day in completed studies. Of these subjects, 1527 subjects received oral ganaxolone and 30 subjects received intravenous (IV ganaxolone).
# In 20 completed Phase 1 studies, 319 healthy subjects received ganaxolone oral doses of 50 to 2,000 mg/day for periods of up to 2 weeks or IV bolus doses ranging from 10 to 30 mg over durations of 2 minutes to 1 hour or a bolus dose of 6 mg over 5 minutes followed with a continuous infusion of 20 mg per hour for 4 hours.
# In the 20 completed Phase 2/3 clinical studies, 1238 unique subjects have received oral ganaxolone in studies of adult subjects with epilepsy, pediatric subjects with seizure disorders, pediatric subjects with FXS, adult subjects with PTSD, and adult subjects with migraine.
# [12] = system: rabbits; assay: Local tolerance study in rabbits; conditions: rabbit, in vivo
# [13] = system: rats; assay: IV toxicity in rats, 14 days; conditions: continuous IV dosing for 14 days
# [14] = IV toxicity in rats, 14 days; conditions: rat, in vivo, iv
# [15] = Human pharmacokinetics after oral administration; conditions: in vivo
# [16] = system: CYP3A4/5; assay: Ganaxolone levels in subjects taking strong CYP inducers (carbamazepine and phenytoin); conditions: with strong CYP inducers (carbamazepine and phenytoin)
structure (smiles),measurement,setting,value
"CC(=O)[C@H]1CC[C@H]2[C@@H]3CC[C@H]4C[C@](C)(O)CC[C@]4(C)[C@H]3CC[C@]12C [ganaxolone, 3α-hydroxy-3β-methyl-5α-pregnan-20-one]",Mutagenicity,[1],No potential for mutagenicity was detected
same,NOAEL at 28 days,[2],7.2 mg/kg/day
same,Serious adverse events or adverse events leading to discontinuation,"[3]; Cohort 1: IV 4 mg/hr for 48 h then 2 mg/hr for 12 h, 9 subjects",no serious adverse events or adverse events leading to discontinuation
same,DC for AE,[3]; Cohort 6,0 n (%)
same,Incidence of dizziness,[3]; Cohort 6,25%
same,Serious adverse events or adverse events leading to treatment discontinuation,[3]; Cohort 6,no serious adverse events or adverse events leading to treatment discontinuation
same,TEAE somnolence,[3]; Cohort 6,0 n (%)
same,Incidence of somnolence and sedation,[3]; Cohort 6: IV 20 mg/hr for 6 hours and 900 mg orally with dinner,> 30% and 31.3%
same,Tolerability of oral administration,"[3]; Cohort 6, 900 mg orally with dinner, after Day 2",well tolerated
same,Potency and efficacy in activating GABAA receptors,[4],comparable to allopregnanolone
same,Aggression and social isolation-induced anxiety-like behaviour,[5],decreased aggression and social isolation-induced anxiety-like behaviour
same,Peak concentration,[6]; 20 mg over 2 minutes,441 ng/mL
same,Peak concentration,[6]; 20 mg/hr for 4 hours,215 ng/mL
same,"Treatment emergent AEs, seriousness and intensity",[6]; Stages 1 and 2,"None of the treatment emergent AEs were serious, and all were of mild intensity"
same,Cmax,"[6]; human, in vivo, intravenous, bolus infusion of 30 mg over 5-minutes, read-out: Peak concentration levels (Cmax)",> 1000 ng/mL
same,Peak concentration,[6]; infusion of 30 mg/hr for 1 hour,258 ng/mL
same,Modified Observers Assessment of Alertness/Sedation (MOAAS) score,"[6]; score 5 = no sedation, 1 = deep sedation",vast majority of the scores were 5
same,Haemolysis,[7],did not cause haemolysis; also recorded: did not cause hemolysis
same,Kp,[8],~5
same,Excreted radioactivity via faeces,[9],> 70%
same,EPDS and STAI6 versus placebo,[10]; Cohort 6,numeric advantage at all timepoints till Day 29
same,"Placebo-adjusted difference, HAM-D17 (LS Mean), early efficacy","[10]; PP, 6 hours",−3.4
same,"Placebo-adjusted difference, HAM-D17 (LS Mean), early efficacy","[10]; PP, Day 2",−2.7
same,"Placebo-adjusted difference, HAM-D17 (LS Mean), late efficacy",[10]; PP,−2.6
same,"Placebo-adjusted difference, HAM-D17 (LS Mean), early efficacy","[10]; mITT, 6 hours",−2.8
same,"Placebo-adjusted difference, HAM-D17 (LS Mean), early efficacy","[10]; mITT, Day 2",−2.6
same,"Placebo-adjusted difference, HAM-D17 (LS Mean), late efficacy",[10]; mITT,+1
same,"HAMD17 change from baseline, PP analysis and sensitivity by site analyses","[10]; Cohort 6, after Day 2",favors GNX
same,HAMD17 decrease versus placebo,"[10]; Cohort 6, at 6 hours and on Day2, both mITT, PP",favor ganaxolone
same,CGI-I decrease versus placebo,"[10]; Cohort 6, both mITT, PP, early timepoint",favors GNX
same,HAMD17 mITT analysis at late and intermediate timepoints during oral treatment,"[10]; Cohort 6, mITT",not different from placebo
same,CGI-I versus placebo,"[10]; Cohort 6, mITT and PP, Day 2, Day 8, Day 15, Day 29 (p<0.05)",favors GNX at all timepoints
same,Incidence of syncope,[11]; 2/993 subjects,0.2%
same,Discontinuations due to rash,[11]; 6/993,0.6%
same,Subjects with at least 1 treatment emergent adverse event (TEAE),[11]; 613/993 subjects,61.7%
same,Subjects with elevated LFTs (>3×ULN AST and/or ALT),"[11]; Phase 1, 2, and 3 placebo-controlled studies",0.32%
same,Events of loss of consciousness,[11]; all placebo-controlled studies,no events of loss of consciousness related to ganaxolone
same,TEAE dizziness,"[11]; human, in vivo",13.0%
same,TEAE fatigue,"[11]; human, in vivo",9.7%
same,TEAE headache,"[11]; human, in vivo",5.5%
same,TEAE somnolence,"[11]; human, in vivo",22.0%
same,Local tolerance,[12],no findings
same,Clinical pathology parameters or histopathology,[13],no ganaxolone-related changes
same,NOAEL at 14 days,[14]; female,30 mg/kg/day
same,NOAEL at 14 days,[14]; male,42 mg/kg/day
same,Cmax,[15],200 to 300 ng/mL
same,Lowering in overall ganaxolone levels and exposure,[16],~45%
